From US20240115545A1, “PHARMACEUTICAL COMPOSITION CONTAINING B-LAPACHONE AS ACTIVE INGREDIENT FOR PREVENTION OR TREATMENT OF CHOLESTATIC LIVER DISEASE” (CUROME BIOSCIENCES CO., LTD., priority 2020, published 2024)

Key:
[1] = test system: DDC-induced cholestatic liver disease mice; test: Treatment effect on blood bilirubin and ALP in cholestatic liver disease-induced mice (Example 4); format: in vivo
Method: The treatment effect of β-lapachone in cholestatic liver disease-induced mouse animals were investigated. After 8-week-old C57BL/6 male mice (Samtako, Korea) were divided into each group (=6), each group excluding a control group was fed a diet containing 0.1% DDC for 3 days. Thereafter, the mice were fed a diet with DDC control (vehicle), DDC+β-lapachone 20 mg/kg, DDC+β-lapachone 40 mg/kg, DDC+β-lapachone 80 mg/kg, and positive control DDC+obeticholic acid 30 mg/kg for 4 days (total 7 days). After 7 days of feeding, the mice were sacrificed and then the blood was collected from the heart.

[2] = test system: Poly I:C-induced cholestatic liver disease animal models; test: Blood AST, ALT, ALP in Poly I:C-induced primary biliary cirrhosis mice (Example 5); format: in vivo
Method: Of cholestatic liver diseases, primary biliary cirrhosis (PBC) may be introduced to a similar state by using a viral RNA mimic and the Toll-like receptor polyinosinic-polycytidylic acid (Poly I:C). After 8-week-old C57BL/6 male mice (Samtako, Korea) were divided into each group (=6), each experimental group excluding a normal group was intraperitoneally administered 5 mg/kg Poly I:C twice a week for 8 weeks. Thereafter, the mice were fed a diet with control (vehicle), β-lapachone 40 mg/kg, β-lapachone 80 mg/kg, and positive control ursodeoxycholic acid 100 mg/kg and obeticholic acid 30 mg/kg for 8 weeks. On the 16th week of treatment, the experiment was ended, and the mice were sacrificed and then the blood was collected from the heart.

[3] = test system: DSS-induced inflammatory bowel disease mice; test: Colon length in DSS-induced inflammatory bowel disease mice (Example 6.2); format: in vivo; conditions: DSS + β-lapachone 80 mg/kg
Method: After 8-week-old C57BL/6 female mice (Samtako, Korea) were divided into each group (=10), each experimental group was fed a standard rodent diet supplemented with 3% (w/w) DSS in drinking water for the first 5 days to induce acute colitis and orally administered control (vehicle), β-lapachone 40 mg/kg, and β-lapachone 80 mg/kg for 14 days.
By the same method as in Example 6.1, experimental groups were divided into a DSS untreated group (Control), a DSS treated group, and a DSS+β-lapachone 80 mg/kg treated group, respectively, and treated. After the end of the experiment, the mice were sacrificed to remove the colon, and the accurate colon length was measured using a Vernier caliper, and is shown FIGS. 11A and 11B. In addition, the mRNA levels of genes of interleukin-1beta (IL-1β), interleukin-6 (IL-6), interleukin-18 (IL-18), interferon-γ (INF-γ), tumor necrosis factor-α (TNF-α), tumor necrosis factor-β (TNF-β), and monocyte chemoattractant protein-1 (MCP-1), which were inflammatory cytokine factors in the colon tissue, were analyzed by a real-time polymerase chain reaction through a conventional experiment procedure, and are shown in FIG. 12.

[4] = test system: macrophage line Raw264.7; test: IL-1β and TNF-α release (ELISA) from LPS and ATP treated Raw264.7 macrophages; format: cell-based; conditions: Raw264.7, LPS 100 ng/ml, 0.2, 0.5, 1, 2 μM β-lapachone 24 hours, ATP 2.5 mM 30 minutes
Method: The macrophage line Raw264.7 (ATCC TIB-71, Manassas, VA, USA) was subcultured in DMEM supplemented with 10% FBS and 1% penicillin/streptomycin.
For inflammation induction, RAW264.7 cells were suspended in DMEM containing 2% FBS, inoculated in a 12-well plate to a cell number of 4×10^5/ml, and incubated in 5% CO2 incubator at 37° C. for 24 hours. With replacement with fresh media, the cells were treated with appropriate concentrations of a corresponding substance, LPS (100 ng/ml), and 0.2, 0.5, 1, and 2 μM β-lapachone, cultured for 24 hours, treated with ATP (2.5 mM), and then cultured for additional 30 minutes, and the supernatant was collected. The release of cytokines (IL-1β and TNF-α) of RaW264.7 macrophages was quantified using each cell-free supernatant-ELISA set (Invitrogen, Billerica, MA, USA) by Invitrogen according to the manufacture's instruction, and is shown in FIG. 14.

[5] = 0.1% DDC 3 days, then DDC + 20, 40, 80 mg/kg in diet for 4 days, depending on the concentration
[6] = β-lapachone 40, 80 mg/kg in diet for 8 weeks after 8 weeks Poly I:C

For `CC1(C)CCC2=C(O1)c1ccccc1C(=O)C2=O` [β-lapachone], the “ALP in the blood increased by DDC” value [1, 5] was “inhibited”, the “bilirubin in the blood increased by DDC” value [1, 5] was “inhibited” and the “effect on bilirubin and ALP compared with positive controls” value ([1]; treatment after 3 days DDC, positive control obeticholic acid 30 mg/kg) was “excellent effect compared with ursodeoxycholic acid (UDCA) and obeticholic acid (OCA)”. The “effect on AST, ALT, ALP compared with comparative substances” value ([2]; vs ursodeoxycholic acid 100 mg/kg and obeticholic acid 30 mg/kg, 8 weeks) was “excellent effect compared with the comparative substances ursodeoxycholic acid (UDCA) and obeticholic acid (OCA)”, the “ALP in the blood increased by Poly I:C” value [2, 6] was “inhibited” and the “ALT in the blood increased by Poly I:C” value [2, 6] was “inhibited”. The “AST in the blood increased by Poly I:C” value [2, 6] was “inhibited”, the “colon length shortened by DSS” value [3] was “recovered” and the “expression level of IL-1β protein increased by LPS and ATP” value [4] was “reduced depending on the concentration”. For the same compound, the “expression level of TNF-α protein increased by LPS and ATP” value [4] was “reduced depending on the concentration”.
